Test system: CB-1 receptor
Assay: CB-1 receptor binding ([3H]SR141716A displacement)
Conditions: rat or human CB-1 protocol not specified; kind of value (Ki/IC50) not stated
Experimental: Compounds having an activity <20 nM are generally tested in the CB-1 GTPγ [^35S] Binding Assay and the CB-2 binding assay described below in the Biological Binding Assays section. Selected compounds are then tested in vivo using one or more of the functional assays described in the Biological Functional Assays section below. The compounds in the Examples above provided a range of CB-1 receptor binding activities from 0.1 to 500 nM.
The following assays were designed to detect compounds that inhibit the binding of [^3H] SR141716A (selective radiolabeled CB-1 ligand) and [^3H]5-(1,1-dimethylheptyl)-2-[5-hydroxy-2-(3-hydroxypropyl)-cyclohexyl]-phenol; radiolabeled CB-1/CB-2 ligand) to their respective receptors. […]
The test compounds were diluted in drug buffer (0.5% BSA, 10% DMSO and TME) and then 25 μl were added to a deep well polypropylene plate. […] In the morning the filters were counted on a Wallac Betaplate™ counter (available from PerkinElmer Life Sciences™, Boston, Mass.). […]
The test compounds were diluted in drug buffer (0.5% BSA, 10% DMSO and TME) and then 25 μl were added to a deep well polypropylene plate. […] In the morning the filters were counted on a Wallac Betaplate™ counter (available from PerkinElmer Life Sciences™, Boston, Mass.).

## CNC1CCCOc2c1nn(-c1ccccc1Cl)c2-c1ccc(Cl)cc1 (stereo not shown) [Example 1C]
  CB-1 receptor binding activity: 47 nM
